The subject of one assay is SKOV-3. The assay is described as follows: Cell proliferation assay (CellTiter-Glo), SKOV-3. The assay is classed as cell-based. The following applies: Homo sapiens, SK-OV-3; 72 h exposure; mean ± SD of two experiments. Here is the method:
(§1) Given the desirable enzyme activity profile, these compounds were further assayed for their antiproliferative activities against five independent human tumour cell line collections harbouring PIK3CA mutation, including human ovarian cancer cell line SKOV-3, human breast cancer T47D and MCF-7, human lung cancer H1975 and H460. […] In general, the cellular activity of tested derivatives corrected with their effects on kinase activity.
(§2) All target compounds were evaluated for antiproliferative potency against SKOV-3, T47D,NCI-H1975, NCI-H460,and MCF-7 tumour cell lines using a CellTiter-Glo® Luminescent Cell Viability Assay. The human tumour cell lines used were obtained from the ATCC or Shanghai ZhongQiaoXinZhou Biotech. All the mediums and FBS were Gibco. T47D, H1975 and NCI-H460 tumour cells were cultured in RPMI1640 medium supplemented with 10% FBS. SKOV-3 was cultured in McCoy’s 5 A medium supplemented with 10%FBS. The day before treatment with compounds, cells were seeded at a density of 2000 or 5000 in each well of a 96-well plate. The tumour cells were then treated with 3-fold serial diluted compound or DMSO control in the incubator at 37 °C and 5% CO2 for 3 days, prior to the addition of CellTiter-Glo reagents (Promega) and reading of luminescence using a PerkinElmer Envision plate reader. Data were analysed using GraphPad Prism 7.0.

The next assay relates to MCF-7. The assay is described as follows: Cell proliferation assay (CellTiter-Glo), MCF-7. It counts as cell-based. The following applies: Homo sapiens, MCF7; 72 h exposure; mean ± SD of two experiments. Here is the method: as §1, §2
Another assay has as its system T47D. The assay is described as follows: Cell proliferation assay (CellTiter-Glo), T47D. The settings on record: Homo sapiens, 72 h exposure, mean ± SD of two experiments. It counts as cell-based. Here is the method: as §1, §2
A general note: In ATP-based viability assays light output follows the ATP content of the culture.

Another assay concerns NCI-H460. The assay is described as follows: Cell proliferation assay (CellTiter-Glo), NCI-H460. The assay is classed as cell-based. The settings on record: Homo sapiens, 72 h exposure, mean ± SD of two experiments. Here is the method:
as §1, §2

The subject of another assay is NCI-H1975. The assay is described as follows: Cell proliferation assay (CellTiter-Glo), NCI-H1975. The settings on record: Homo sapiens, 72 h exposure, mean ± SD of two experiments. The assay is classed as cell-based. The protocol: as §1, §2
The next assay addresses T1, PI3Kα (Homo sapiens, UniProt P42336).
T1 construct: purchased Invitrogen
The assay is described as follows: In vitro PI3Kα enzymatic assay (ADP-Glo / Kinase-Glo, ATP 25 μM). The assay is classed as biochemical. The settings on record: ATP 25 μM; for IC50: mean ± SD of two experiments; for inhibition at 10 µM: PI3Kα, compound 10 μM, mean ± SD of three determinations, read-out: % Inhibition at 10 μM. The protocol:
To screen the inhibitory activity of the target compounds against PI3Kα, the Kinase-Glo™ assay with ATP at 25 μM was utilised with PIK-75 as positive control. We chose to explore the SARs at three positions on the Imidazo[1,2-a]pyridine core. To start with, a set of 8-position modifications were prepared while keeping the morpholinyl amide substituent on 2-position fixed, since it allowed quick structure − activity profiling via coupling reactions of bromide with aryl borates or boronic acids. […] We then turned our attention back to the phenyl substituents.
Briefly, the compound, PI3K enzyme (PI3Kα from Invitrogen), the PIP2 (Life Technologies) substrate, and ATP (25 μM, Sigma) were diluted in kinase buffer to the indicated concentrations. The assay plate was covered and incubated at room temperature for 1 h. Then, the Kinase-Glo reagent (Promega) was added to the PI3Kα plate to stop the reaction, mixed briefly with centrifuge, shaken slowly on the shaker and then equilibrate for 120 min. Finally, add Kinase detection reagent to each well, shake 1 min, equilibrate for 30 min before reading on a plate reader for luminescence. The data were collected on Envision and presented in Excel. IC50 values were calculated from the inhibition curves.
A general note: ADP-Glo first removes unused ATP, then detects ADP through luciferase.

By IC50 is commonly meant the midpoint of a concentration-inhibition curve. A higher IC50 goes with a need for much substance. The term inhibition denotes the percentage by which the read-out fell short of the control.

T1 sequence (P42336 whole entry): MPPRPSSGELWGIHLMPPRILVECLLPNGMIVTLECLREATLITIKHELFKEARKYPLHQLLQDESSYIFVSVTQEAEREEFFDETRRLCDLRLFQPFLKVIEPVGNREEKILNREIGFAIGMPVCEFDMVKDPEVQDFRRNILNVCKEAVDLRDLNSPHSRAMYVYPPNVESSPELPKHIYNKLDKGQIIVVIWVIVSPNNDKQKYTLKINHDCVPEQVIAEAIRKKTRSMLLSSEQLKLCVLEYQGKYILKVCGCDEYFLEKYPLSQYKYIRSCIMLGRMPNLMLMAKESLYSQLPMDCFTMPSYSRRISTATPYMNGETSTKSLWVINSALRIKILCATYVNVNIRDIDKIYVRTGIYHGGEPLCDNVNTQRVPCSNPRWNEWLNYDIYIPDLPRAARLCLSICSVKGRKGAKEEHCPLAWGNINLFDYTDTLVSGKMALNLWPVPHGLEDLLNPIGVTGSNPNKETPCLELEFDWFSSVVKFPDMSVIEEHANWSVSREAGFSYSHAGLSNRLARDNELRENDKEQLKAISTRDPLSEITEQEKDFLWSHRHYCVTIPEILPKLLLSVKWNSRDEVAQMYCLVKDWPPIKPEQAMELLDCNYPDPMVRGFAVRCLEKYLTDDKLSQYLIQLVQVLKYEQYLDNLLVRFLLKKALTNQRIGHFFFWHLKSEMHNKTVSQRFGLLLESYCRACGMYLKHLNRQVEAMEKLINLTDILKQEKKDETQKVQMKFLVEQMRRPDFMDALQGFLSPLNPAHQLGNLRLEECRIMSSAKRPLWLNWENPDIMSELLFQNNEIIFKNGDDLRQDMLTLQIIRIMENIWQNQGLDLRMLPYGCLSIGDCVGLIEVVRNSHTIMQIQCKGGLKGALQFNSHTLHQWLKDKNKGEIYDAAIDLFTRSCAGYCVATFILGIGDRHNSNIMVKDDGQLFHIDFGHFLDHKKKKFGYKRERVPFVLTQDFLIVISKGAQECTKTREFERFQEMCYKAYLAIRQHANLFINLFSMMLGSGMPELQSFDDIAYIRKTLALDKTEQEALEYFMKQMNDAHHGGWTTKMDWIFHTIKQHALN
T1 sequence (P27986 whole entry partner): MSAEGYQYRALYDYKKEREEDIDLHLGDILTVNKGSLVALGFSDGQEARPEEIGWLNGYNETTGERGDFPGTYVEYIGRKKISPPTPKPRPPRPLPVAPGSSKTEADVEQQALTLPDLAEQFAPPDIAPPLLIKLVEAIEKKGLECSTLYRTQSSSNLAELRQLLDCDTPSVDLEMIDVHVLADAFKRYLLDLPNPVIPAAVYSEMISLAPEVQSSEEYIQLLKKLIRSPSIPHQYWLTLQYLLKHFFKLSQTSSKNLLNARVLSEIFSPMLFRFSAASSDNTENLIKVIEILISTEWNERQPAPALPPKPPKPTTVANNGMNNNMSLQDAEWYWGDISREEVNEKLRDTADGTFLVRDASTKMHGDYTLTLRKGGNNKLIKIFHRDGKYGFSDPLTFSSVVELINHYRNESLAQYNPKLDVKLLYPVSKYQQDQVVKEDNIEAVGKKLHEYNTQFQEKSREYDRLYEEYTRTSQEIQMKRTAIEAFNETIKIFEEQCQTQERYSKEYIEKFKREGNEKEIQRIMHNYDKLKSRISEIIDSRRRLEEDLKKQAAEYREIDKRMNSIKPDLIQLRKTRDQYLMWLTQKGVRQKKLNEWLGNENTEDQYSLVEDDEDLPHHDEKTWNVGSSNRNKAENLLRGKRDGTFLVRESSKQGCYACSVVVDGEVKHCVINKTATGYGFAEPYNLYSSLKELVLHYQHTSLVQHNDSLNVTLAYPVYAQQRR

`Cc1nc(NC(=O)N2CCC[C@H]2C(N)=O)sc1-c1ccnc(C(C)(C)C(F)(F)F)c1` [Alpelisib, reference compound]: the IC50 with SKOV-3 came to 9.7 ± 0.7 µM; in the assay on MCF-7 it was 2.2 ± 0.3 µM; in the assay on T47D, 0.46 ± 0.05 µM; in the assay with NCI-H460, 8.9 ± 0.7 µM; in the assay on NCI-H1975 it was 2.7 ± 0.2 µM.

For `COc1ncc(-c2cc(C)cn3cc(C(=O)NCCN4CCOCC4)nc23)cc1NS(=O)(=O)c1ccc(F)cc1` [Compound 40, 8–(5-((4-Fluorophenyl)sulfonamido)-6-methoxypyridin-3-yl)-6-methyl-N-(2-morpholinoethyl)Imidazo[1,2-a]pyridine-2-carboxamide], the IC50 in the assay on SKOV-3 came to 25.5 ± 3.9 µM; in the assay on MCF-7, 7.6 ± 0.5 µM; in the assay on T47D it was 12.5 ± 1.8 µM; with NCI-H460, 21.8 ± 1.9 µM; with NCI-H1975, 41.4 ± 3.4 µM; against PI3Kα, 0.5 ± 0.11 µM. Also, the inhibition at 10 µM on PI3Kα is above 85%.

Take `COc1ncc(-c2cc(C)cn3cc(C(=O)N4CCCC4)nc23)cc1NS(=O)(=O)c1ccc(F)cc1F` [Compound 36, 2,4-Difluoro-N-(2-methoxy-5–(6-methyl-2-(pyrrolidine-1-carbonyl)Imidazo[1,2-a]pyridin-8-yl)pyridin-3-yl)benzenesulfonamide]: the IC50 with SKOV-3 was 35.3 ± 4.2 µM; in the assay on MCF-7, 8.1 ± 0.8 µM; in the assay with T47D, 15.9 ± 1.5 µM; in the assay on NCI-H460, 30.2 ± 3.1 µM; in the assay on NCI-H1975 it was above 50 µM; on PI3Kα, 1.12 ± 0.15 µM. Further, the inhibition at 10 µM on PI3Kα is above 85%.

The values above are taken from PMC9858543, “Design, synthesis and evaluation of 2, 6, 8-substituted Imidazopyridine derivatives as potent PI3Kα inhibitors” (Journal of Enzyme Inhibition and Medicinal Chemistry, 2023).
